Experimental data as given in patent US8772480B2, “Inhibitors of PI3 kinase and/or mTOR” (priority 2009, dated 2014).

Legend:
PI3Kα = PI3Kα (Homo sapiens (Human), UniProt P42336); conditions: read-out: PI3Kα AlphaScreen ® Ki
[1] = target: ProfilerPro Kinase Selectivity Assay Kit kinases (Homo sapiens, UniProt Q16539); assay type: biochemical; conditions: p38 alpha; 1 μM compound concentration
Protocol: (§1) Compounds were profiled using a LabChip® EZ Reader II platform and a ProfilerPro Kinase Selectivity Assay Kit (Caliper Lifesciences Inc., Hopkinton, Mass.). Compounds were tested at a concentration of 1 M in duplicate, with mean data reported as percent of control (POC).

[2] = target: ProfilerPro Kinase Selectivity Assay Kit kinases (Homo sapiens, UniProt P23443); assay type: biochemical; conditions: p70S6K; 1 μM compound concentration
Protocol: as §1

[3] = target: ProfilerPro Kinase Selectivity Assay Kit kinases (Homo sapiens, UniProt P49841); assay type: biochemical; conditions: GSK3 beta; 1 μM compound concentration
Protocol: as §1

[4] = target: ProfilerPro Kinase Selectivity Assay Kit kinases (Homo sapiens, UniProt P06239); assay type: biochemical; conditions: LCK; 1 μM compound concentration
Chain of ProfilerPro Kinase Selectivity Assay Kit kinases (Homo sapiens, UniProt P06239) (P06239 2-509 limits assumed): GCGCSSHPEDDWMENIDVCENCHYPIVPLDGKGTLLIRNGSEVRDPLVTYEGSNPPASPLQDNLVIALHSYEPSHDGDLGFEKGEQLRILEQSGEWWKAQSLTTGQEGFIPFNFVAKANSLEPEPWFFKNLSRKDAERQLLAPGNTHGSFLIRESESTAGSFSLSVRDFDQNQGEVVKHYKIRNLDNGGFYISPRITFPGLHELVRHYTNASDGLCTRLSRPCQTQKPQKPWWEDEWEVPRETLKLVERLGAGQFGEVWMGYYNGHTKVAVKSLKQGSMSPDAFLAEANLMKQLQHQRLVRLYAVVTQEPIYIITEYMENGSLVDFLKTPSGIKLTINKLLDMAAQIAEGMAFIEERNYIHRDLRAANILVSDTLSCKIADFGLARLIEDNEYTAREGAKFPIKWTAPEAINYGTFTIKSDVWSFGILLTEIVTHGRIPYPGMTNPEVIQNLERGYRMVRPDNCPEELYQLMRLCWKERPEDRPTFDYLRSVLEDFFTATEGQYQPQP
Protocol: as §1

[5] = target: ProfilerPro Kinase Selectivity Assay Kit kinases (Homo sapiens, UniProt Q05513); assay type: biochemical; conditions: PKC zeta; 1 μM compound concentration
Protocol: as §1

[6] = target: ProfilerPro Kinase Selectivity Assay Kit kinases (Homo sapiens, UniProt Q15418); assay type: biochemical; conditions: RSK1; 1 μM compound concentration
Protocol: as §1

[7] = target: ProfilerPro Kinase Selectivity Assay Kit kinases (Homo sapiens, UniProt P28482); assay type: biochemical; conditions: ERK2; 1 μM compound concentration
Chain of ProfilerPro Kinase Selectivity Assay Kit kinases (Homo sapiens, UniProt P28482) (P28482 2-360 limits assumed): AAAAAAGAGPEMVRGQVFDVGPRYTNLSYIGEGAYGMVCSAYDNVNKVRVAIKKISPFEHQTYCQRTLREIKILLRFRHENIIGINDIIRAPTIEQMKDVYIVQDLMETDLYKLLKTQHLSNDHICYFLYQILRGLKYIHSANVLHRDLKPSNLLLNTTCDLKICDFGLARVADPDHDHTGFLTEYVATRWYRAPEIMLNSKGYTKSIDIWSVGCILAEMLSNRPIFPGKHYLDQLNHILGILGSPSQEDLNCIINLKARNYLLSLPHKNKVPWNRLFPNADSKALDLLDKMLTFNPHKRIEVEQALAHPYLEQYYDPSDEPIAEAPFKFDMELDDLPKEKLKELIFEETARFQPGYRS
Protocol: as §1

[8] = target: ProfilerPro Kinase Selectivity Assay Kit kinases (Homo sapiens, UniProt Q9P1W9); assay type: biochemical; conditions: PIM2; 1 μM compound concentration
Protocol: as §1

[9] = target: ProfilerPro Kinase Selectivity Assay Kit kinases (Homo sapiens, UniProt O96017); assay type: biochemical; conditions: CHK2; 1 μM compound concentration
Protocol: as §1

[10] = target: ProfilerPro Kinase Selectivity Assay Kit kinases (Homo sapiens, UniProt P04049); assay type: biochemical; conditions: cRAF; 1 μM compound concentration
Protocol: as §1

[11] = target: ProfilerPro Kinase Selectivity Assay Kit kinases (Homo sapiens, UniProt Q16566); assay type: biochemical; conditions: CAMK4; 1 μM compound concentration
Protocol: as §1

[12] = target: ProfilerPro Kinase Selectivity Assay Kit kinases (Homo sapiens, UniProt Q13976); assay type: biochemical; conditions: PKGa2; 1 μM compound concentration
Chain of ProfilerPro Kinase Selectivity Assay Kit kinases (Homo sapiens, UniProt Q13976) (Q13976 2-671 limits assumed): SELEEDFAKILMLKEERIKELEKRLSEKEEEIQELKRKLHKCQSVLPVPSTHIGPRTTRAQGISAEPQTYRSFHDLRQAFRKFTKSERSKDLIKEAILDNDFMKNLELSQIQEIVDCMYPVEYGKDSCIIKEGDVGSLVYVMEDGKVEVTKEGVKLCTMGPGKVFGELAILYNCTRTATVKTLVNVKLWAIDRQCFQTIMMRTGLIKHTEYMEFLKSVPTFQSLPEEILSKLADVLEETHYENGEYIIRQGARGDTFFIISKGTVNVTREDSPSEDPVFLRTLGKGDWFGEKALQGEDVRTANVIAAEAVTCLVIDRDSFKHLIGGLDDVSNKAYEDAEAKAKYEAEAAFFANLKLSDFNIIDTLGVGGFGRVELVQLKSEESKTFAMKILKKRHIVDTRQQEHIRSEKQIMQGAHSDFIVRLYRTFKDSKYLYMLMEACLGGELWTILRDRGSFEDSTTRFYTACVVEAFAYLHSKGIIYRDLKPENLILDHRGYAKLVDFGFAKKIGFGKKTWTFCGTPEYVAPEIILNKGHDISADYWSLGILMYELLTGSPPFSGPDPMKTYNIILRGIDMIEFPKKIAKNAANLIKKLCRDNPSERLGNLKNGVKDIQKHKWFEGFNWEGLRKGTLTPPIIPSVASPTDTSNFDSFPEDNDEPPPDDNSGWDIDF
Protocol: as §1

[13] = target: ProfilerPro Kinase Selectivity Assay Kit kinases (Homo sapiens, UniProt P31749); assay type: biochemical; conditions: AKT1; 1 μM compound concentration
Protocol: as §1

[14] = target: human mutant B-raf (HuBraf V600E) (Homo sapiens (Human), UniProt P15056, V600E); conditions: at 10 μM compound concentration; POC = 100 − percent inhibition
Chain of human mutant B-raf (HuBraf V600E) (P15056 whole entry V600E): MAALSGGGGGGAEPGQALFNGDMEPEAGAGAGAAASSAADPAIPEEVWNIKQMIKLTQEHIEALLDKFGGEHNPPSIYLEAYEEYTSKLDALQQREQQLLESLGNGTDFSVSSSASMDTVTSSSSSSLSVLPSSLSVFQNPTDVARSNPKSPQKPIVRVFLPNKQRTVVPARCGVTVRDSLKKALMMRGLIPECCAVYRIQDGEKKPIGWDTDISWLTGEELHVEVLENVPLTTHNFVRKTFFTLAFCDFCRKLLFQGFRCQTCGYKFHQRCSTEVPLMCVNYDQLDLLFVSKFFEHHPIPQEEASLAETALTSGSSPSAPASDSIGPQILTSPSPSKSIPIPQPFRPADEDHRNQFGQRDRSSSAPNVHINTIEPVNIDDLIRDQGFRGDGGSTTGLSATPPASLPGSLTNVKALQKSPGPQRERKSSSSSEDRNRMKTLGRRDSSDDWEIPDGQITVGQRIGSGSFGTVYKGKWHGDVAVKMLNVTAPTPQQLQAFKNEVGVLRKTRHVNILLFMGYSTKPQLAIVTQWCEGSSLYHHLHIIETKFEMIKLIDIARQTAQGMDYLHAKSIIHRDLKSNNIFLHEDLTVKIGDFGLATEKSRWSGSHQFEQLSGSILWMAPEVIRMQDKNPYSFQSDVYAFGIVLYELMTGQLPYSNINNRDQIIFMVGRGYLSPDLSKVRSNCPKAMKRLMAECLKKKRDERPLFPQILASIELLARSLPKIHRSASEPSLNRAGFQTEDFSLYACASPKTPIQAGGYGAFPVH
Protocol: B-Raf Homogenous Time Resolved Fluorescence (HTRF) Kinase Assay
The final concentration of the kinase reaction buffer is 50 mM Tris-HCl pH 7.5, 10 mM MgCl2, 0.5% glucose, 0.5 mM DTT, 0.01% BSA. […] The detection reaction proceeds for one hour and is read on a RubyStar (BMG Labtech, Durham, N.C.) counter. IC50s for the test compounds are generated using Excel-XLfit software. For single concentration percent of control (POC;=100−percent inhibition) assays, compounds were assayed as above at a single test concentration of 10 M test compound.

[15] = tested on: phosphorylation of Akt at Serine 473 in U87 MG cells; assay: cells; conditions: Homo sapiens, U-87 MG, 2 h, read-out: U87Cell IC50, pAkt (Ser 473), U87 MG cells, two hours with compound

Chain of PI3Kα (P42336 whole entry): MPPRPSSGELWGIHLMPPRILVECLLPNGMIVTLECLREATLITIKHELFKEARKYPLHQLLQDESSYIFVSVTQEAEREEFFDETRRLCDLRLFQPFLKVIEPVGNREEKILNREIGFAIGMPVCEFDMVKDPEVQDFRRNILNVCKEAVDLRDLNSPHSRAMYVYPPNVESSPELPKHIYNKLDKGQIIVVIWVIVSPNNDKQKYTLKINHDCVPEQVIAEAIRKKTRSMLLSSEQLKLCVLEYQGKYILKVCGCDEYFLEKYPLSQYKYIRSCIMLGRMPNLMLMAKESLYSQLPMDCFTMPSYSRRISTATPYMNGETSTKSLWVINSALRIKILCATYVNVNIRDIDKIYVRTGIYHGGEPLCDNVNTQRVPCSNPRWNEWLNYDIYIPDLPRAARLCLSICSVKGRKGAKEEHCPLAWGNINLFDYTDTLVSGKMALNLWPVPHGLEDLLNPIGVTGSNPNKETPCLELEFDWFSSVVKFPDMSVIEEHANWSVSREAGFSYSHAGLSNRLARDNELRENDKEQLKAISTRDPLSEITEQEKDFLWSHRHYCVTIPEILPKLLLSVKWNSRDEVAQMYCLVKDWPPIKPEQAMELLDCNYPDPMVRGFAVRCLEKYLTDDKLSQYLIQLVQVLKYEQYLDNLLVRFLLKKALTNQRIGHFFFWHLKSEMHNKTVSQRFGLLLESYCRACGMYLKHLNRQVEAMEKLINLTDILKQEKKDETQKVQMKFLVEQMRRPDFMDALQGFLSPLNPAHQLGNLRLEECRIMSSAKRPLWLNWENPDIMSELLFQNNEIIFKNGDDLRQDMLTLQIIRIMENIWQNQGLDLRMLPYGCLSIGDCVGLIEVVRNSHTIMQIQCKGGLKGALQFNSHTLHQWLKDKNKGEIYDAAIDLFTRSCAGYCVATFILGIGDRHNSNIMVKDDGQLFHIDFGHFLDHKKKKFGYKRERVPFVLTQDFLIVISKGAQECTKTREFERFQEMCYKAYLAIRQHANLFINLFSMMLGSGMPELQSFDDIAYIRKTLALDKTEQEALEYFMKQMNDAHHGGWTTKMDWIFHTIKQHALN
Chain of PI3Kα (P27986 whole entry partner): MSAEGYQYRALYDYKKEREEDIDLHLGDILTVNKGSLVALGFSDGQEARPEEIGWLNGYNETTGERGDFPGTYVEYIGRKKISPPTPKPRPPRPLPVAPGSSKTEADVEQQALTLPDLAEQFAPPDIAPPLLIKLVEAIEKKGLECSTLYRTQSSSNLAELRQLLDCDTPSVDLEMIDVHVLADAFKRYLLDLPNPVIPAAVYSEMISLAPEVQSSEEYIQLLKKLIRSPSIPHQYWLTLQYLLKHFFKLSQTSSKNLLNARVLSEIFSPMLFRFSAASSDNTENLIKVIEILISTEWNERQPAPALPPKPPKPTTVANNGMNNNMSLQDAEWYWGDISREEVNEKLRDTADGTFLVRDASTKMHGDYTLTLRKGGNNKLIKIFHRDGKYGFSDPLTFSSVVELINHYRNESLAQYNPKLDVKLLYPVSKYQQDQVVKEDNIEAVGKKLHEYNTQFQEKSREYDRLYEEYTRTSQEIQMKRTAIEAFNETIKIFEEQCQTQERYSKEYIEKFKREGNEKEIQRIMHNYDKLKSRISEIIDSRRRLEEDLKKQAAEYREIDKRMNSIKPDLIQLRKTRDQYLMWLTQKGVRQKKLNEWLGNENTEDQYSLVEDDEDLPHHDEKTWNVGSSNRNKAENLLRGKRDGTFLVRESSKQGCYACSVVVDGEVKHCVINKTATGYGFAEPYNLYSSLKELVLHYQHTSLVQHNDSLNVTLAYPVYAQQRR
Chain of ProfilerPro Kinase Selectivity Assay Kit kinases (Homo sapiens, UniProt Q16539) (Q16539 2-360 limits assumed): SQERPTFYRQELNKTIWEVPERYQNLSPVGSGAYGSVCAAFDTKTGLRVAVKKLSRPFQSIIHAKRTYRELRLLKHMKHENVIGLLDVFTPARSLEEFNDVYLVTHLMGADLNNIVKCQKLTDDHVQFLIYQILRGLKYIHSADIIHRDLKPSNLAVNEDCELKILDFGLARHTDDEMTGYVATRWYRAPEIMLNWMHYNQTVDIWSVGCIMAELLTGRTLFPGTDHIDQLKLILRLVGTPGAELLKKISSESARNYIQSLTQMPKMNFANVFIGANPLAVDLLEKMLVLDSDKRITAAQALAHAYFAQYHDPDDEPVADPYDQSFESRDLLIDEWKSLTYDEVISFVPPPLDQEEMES

Compound	Ki (PI3Kα) [µM]	POC (Percent of control) p38 alpha [1] [POC]	POC (Percent of control) p70S6K [2] [POC]	POC (Percent of control) GSK3 beta [3] [POC]	POC (Percent of control) LCK [4] [POC]	POC (Percent of control) PKC zeta [5] [POC]	POC (Percent of control) RSK1 [6] [POC]	POC (Percent of control) ERK2 [7] [POC]	POC (Percent of control) PIM2 [8] [POC]	POC (Percent of control) CHK2 [9] [POC]	POC (Percent of control) cRAF [10] [POC]	POC (Percent of control) CAMK4 [11] [POC]	POC (Percent of control) PKGa2 [12] [POC]	POC (Percent of control) AKT1 [13] [POC]	Mutant B-raf HTRF Assay POC Mean n = 2 [14]	IC50 [15] [µM]
c1cnc(Nc2cccc3[nH]ncc23)c(-c2ncnc3[nH]cnc23)c1 [Example 18, N-(3-(9H-Purin-6-yl)Pyridin-2-yl)-1H-Indazol-4-Amine]	22.6	86	98	92	72	102	96	96	101	94	1	71	90	103	3% of Control (POC)	–
COc1ccc(Nc2ncccc2-c2ncnc3[nH]cnc23)cn1 [Example 20, N-(6-Methoxypyridin-3-yl)-3-(9H-Purin-6-yl)Pyridin-2-Amine]	–	93	104	95	101	99	97	101	105	103	59	100	98	105	72% of Control (POC)	–
Cc1nc(N)nc(-c2cccnc2Nc2cccc3[nH]ccc23)n1 [Example 22, N-(3-(4-Amino-6-Methyl-1,3,5-Triazin-2-yl)Pyridin-2-yl)-1H-Indol-4-Amine]	–	101	74	94	97	98	100	103	97	102	98	95	93	102	118% of Control (POC)	–
Cc1nc(N)nc(-c2cccnc2Nc2cccc(O)c2)n1 [Example 23, 3-(3-(4-Amino-6-Methyl-1,3,5-Triazin-2-yl)Pyridin-2-Ylamino)Phenol]	–	104	112	96	97	102	103	103	99	101	108	98	87	103	100% of Control (POC)	–
Cc1nc(N)cc(-c2cccnc2Nc2cccc3[nH]ncc23)n1 [Example 27, N-(3-(6-Amino-2-Methylpyrimidin-4-yl)Pyridin-2-yl)-1H-Indazol-4-Amine]	0.13	104	91	80	101	99	89	97	106	97	95	56	90	98	110% of Control (POC)	–
Cc1nc(-c2cccnc2Nc2cccc3[nH]ncc23)c2nc[nH]c2n1 [Example 57, N-(3-(2-methyl-9H-purin-6-yl)pyridin-2-yl)-1H-indazol-4-amine]	–	100	94	101	96	100	97	97	94	98	100	93	98	102	87% of Control (POC)	–
COc1ccc(Nc2ncccc2-c2nc(C)nc3[nH]cnc23)cn1 [Example 58, N-(6-methoxypyridin-3-yl)-3-(2-methyl-9H-purin-6-yl)pyridin-2-amine]	–	98	98	101	98	142	94	103	94	99	99	95	97	106	97% of Control (POC)	–
COc1ccc(Nc2ncc(Cc3ccc(S(C)(=O)=O)cc3)cc2-c2nc(C)nc3[nH]cnc23)cn1 [Example 103, N-(6-methoxypyridin-3-yl)-3-(2-methyl-9H-purin-6-yl)-5-(4-(methylsulfonyl)benzyl)pyridin-2-amine]	0.002	92	109	96	92	98	100	94	96	94	100	95	98	94	–	0.028
